Test system: IFN-γ
Assay: Serum IFN-γ levels following tocotrienol supplementation in mouse models
Format: in vivo

tocotrienol
serum levels of interferon-gamma (IFN-γ): significantly increased

Source: patent publication US7776324B2, “Cancer vaccine” (Malaysian Palm Oil Board (MPOB), priority 2006, dated 2010)
